{"source": "patent US11479604B2", "about": "“Immunomodulatory peptides and methods for modulating the immune system in a subject” (Recepta Biopharma S.A., priority 2017, dated 2022)", "key": {"CD11c+ cells": {"tested_on": "CD11c+ cells", "assay": "TGF-beta1 ELISA of CD11c+ cells from lymphoid organs of melanoma-bearing treated mice", "type": "in vivo, C57Bl6 mice", "conditions": "300 μg/dose i.p., day 17", "method": "Animals were sacrificed on day 17 and their lungs, cervical and axillary lymph nodes and spleen were processed for examination. Lymph nodes and spleen were macerated separately, DMEM was added and passed through a cell strainer. CD11c+ cells were isolated using mouse CD11c+ beads and magnetic sorting. Cells were suspended in R10 medium and plated in […] at 10^6 cells/well. Cells were incubated for 24 h with or without tumor cell lysate (B16F10 stimulus). The supernatant was used in a TGF-beta1 ELISA test."}, "[1]": {"tested_on": "human monocyte-derived dendritic cells (mo-DC)", "assay": "Membrane phenotype of human mo-DC from healthy donors", "type": "cell-based", "method": "(§1) Peripheral blood mononuclear cells (PBMCs) were isolated by centrifugation over Ficoll-Paque Plus (GE Healthcare). After a 2 h-incubation in plastic 6-well plates, non-adherent cells were removed from culture and adherent cells (monocytes) were cultivated for 7 days in RPMI-1640 culture medium (Gibco, Grand Island, N.Y., USA), supplemented with 10% FCS (Gibco) plus antibiotic-antimycotic (Gibco) and in the presence of GM-CSF (50 ng/ml—Peprotech, Mexico) and IL-4 (50 ng/ml—Peprotech). At day 5 of culture TNF-α (50 ng/ml; Peprotech, Mexico) was added for mo-DC maturation.\n(§2) Human cells were analyzed in a similar manner, but staining was performed in BSA-PBS, without EDTA. Antibodies against CD11c, CD14, CD80, CD83, CD86, HLA-ABC, HLA-DR, CCR7, PD-L1, conjugated with different fluorochromes and live/dead labeling (Molecular Probes, Oregon, USA) were used. Acquisition was performed in a FACSCanto II analyzer (BD Biosciences) and analyzed with the FlowJo Software X.10.07r2 (Tree Star)."}, "B16F10-Nex2 melanoma": {"tested_on": "B16F10-Nex2 melanoma", "assay": "Subcutaneous melanoma model", "type": "in vivo, C57BL/6 mice", "conditions": "i.p. administration", "method": "Male C57BL/6 mice, 6 to 8-week-old were obtained from the Center for Development of Experimental Models (CEDEME), Federal University of Sao Paulo (UNIFESP). For the in vivo metastatic model, C57BL/6 mice received one intravenous (i.v.) injection of 2×10^5 viable B16-F10-Next melanoma cells in 100 μL. […] The control group received 100 μL PBS. Twenty-two days later, mice (minimum n=3 per group) had their lungs harvested, and the number of macroscopic melanotic nodules were counted. The Ethical Committee of Federal University of São Paulo, Project no. 1234, 2011, approved all experiments with animals, according to International guidelines. For the subcutaneous model, mice were injected with 5×10^5 tumor cells suspended in 100 μL of PBS in the right flank via the subcutaneous route. The peptide (300 μg) was solubilized in 10 μL of distilled H2O and 90 μL of PBS and injected per mouse via the intraperitoneal route. The administration of the peptide was performed in 5 alternate days initiating one day after tumor challenge. Tumor longitudinal diameter (D) and transverse diameter (d) were measured every 2 days until the tumor volume reached 3,000 mm3. Animals were sacrificed when the allowed volume was reached. Volume was calculated using the formula v=Dd^2×0.52. […]"}, "[2]": {"tested_on": "mo-DC obtained from cancer patients' monocytes", "assay": "Surface phenotype of mo-DC from cancer patients", "type": "cell-based, human", "method": "as §1, §2\nSince it is well known that mo-DC from cancer patients can be functionally biased, but are not always so, the patients were separated into two groups, according to their mo-DC ability to induce allogeneic T cell proliferation. Patients whose mo-DC induced less than 35% of the phytohemagglutinin A (PHA)-induced response constituted one group (“defective”) and those whose mo-DC induced a response higher than 35% of the PHA response, the other (“normal”)."}}, "note": "Entries after “also recorded” stand apart in the source; their conditions may differ."}
{"substance": "[CARGETARATFAYWGQGC], NH2 (C-C) [Rb9]", "values": [{"measurement": "TGF-beta in tumor-lysate stimulated CD11c+ cells from the spleen", "setting": "CD11c+ cells", "value": "increased"}, {"measurement": "TGF-beta secreted by lymph node CD11c+ cells", "setting": "CD11c+ cells; vs vehicle (PBS) control cells stimulated by melanoma lysate", "value": "greatly reduced"}, {"measurement": "expression of activation markers on immature mo-DC", "setting": "[1]; 50 μg/mL at day 5, analysis 2 days later", "value": "enhanced the expression of activation markers"}, {"measurement": "expression of maturation markers on mo-DC with TNF-alpha", "setting": "[1]; 50 μg/mL peptide + TNF-alpha 50 ng/mL at day 5", "value": "further enhancing the expression of maturation markers"}, {"measurement": "response of subcutaneous growing melanoma to peptide", "setting": "B16F10-Nex2 melanoma", "value": "much more resistant; also recorded: resistant"}, {"measurement": "effects on surface phenotype of cancer patients' mo-DC", "setting": "[2]; all patients", "value": "heterogeneous"}, {"measurement": "effect on phenotype (differentiation, maturation) of \"defective\" mo-DC", "setting": "[2]; patients whose mo-DC induced less than 35% of the PHA-induced response", "value": "clearly affected the phenotype"}, {"measurement": "effect on phenotype of \"normal\" mo-DC", "setting": "[2]; patients whose mo-DC induced more than 35% of the PHA response", "value": "little effect"}]}
